{"source": "patent US5432165A", "about": "“Methods for the treatment of infection caused by Hepatitis B virus (HBV)” (priority 1992, dated 1995)", "key": {"[1]": {"system": "hepatitis B virus", "details": "cited from earlier work; for HBV markers after dosing was stopped: chronic HBV patients"}, "[2]": {"assay": "Peak and trough plasma levels of FIAU and FAU by HPLC", "assay_type": "in vivo, human", "details": "in vivo", "source_text": "Additionally at Baseline, archive plasma samples were taken."}, "[3]": {"assay": "Stability in an acid environment", "assay_type": "physicochemical", "details": "such as is found in the human stomach"}, "[4]": {"system": "HSV-1", "details": "read-out: in vitro ED90; cited from earlier work"}, "[5]": {"system": "CMV", "details": "read-out: in vitro ED90; cited from earlier work"}, "[6]": {"details": "typical; read-out: cellular toxicity concentration (ID50); cited from earlier work"}, "[7]": {"molecular_target": "DNA polymerase enzyme of human hepatitis B virus (Hepatitis B virus genotype D subtype ayw, UniProt P03156)", "sequence (P03156 whole entry)": "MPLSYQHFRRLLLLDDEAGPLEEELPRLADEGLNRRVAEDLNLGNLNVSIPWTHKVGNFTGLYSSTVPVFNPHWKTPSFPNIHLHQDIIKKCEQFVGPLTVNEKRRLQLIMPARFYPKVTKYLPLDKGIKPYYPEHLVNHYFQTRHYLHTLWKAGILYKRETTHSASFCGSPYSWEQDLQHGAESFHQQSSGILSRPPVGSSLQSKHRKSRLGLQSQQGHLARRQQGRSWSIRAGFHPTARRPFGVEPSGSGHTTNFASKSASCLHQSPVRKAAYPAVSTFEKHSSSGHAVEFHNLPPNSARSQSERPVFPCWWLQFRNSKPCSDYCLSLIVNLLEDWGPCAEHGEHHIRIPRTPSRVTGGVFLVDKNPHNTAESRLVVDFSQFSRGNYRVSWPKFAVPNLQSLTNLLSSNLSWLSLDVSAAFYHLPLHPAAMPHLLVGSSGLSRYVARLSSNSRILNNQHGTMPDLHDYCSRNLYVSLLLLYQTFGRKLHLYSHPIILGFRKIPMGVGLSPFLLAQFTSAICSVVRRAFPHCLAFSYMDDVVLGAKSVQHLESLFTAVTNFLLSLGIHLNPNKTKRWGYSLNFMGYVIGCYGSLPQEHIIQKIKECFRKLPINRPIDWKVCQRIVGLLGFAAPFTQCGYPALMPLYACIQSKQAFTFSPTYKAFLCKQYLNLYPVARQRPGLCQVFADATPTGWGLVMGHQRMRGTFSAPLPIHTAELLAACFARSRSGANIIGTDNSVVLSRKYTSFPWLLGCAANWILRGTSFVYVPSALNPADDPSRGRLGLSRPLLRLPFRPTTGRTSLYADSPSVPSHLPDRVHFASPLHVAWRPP", "details": "read-out: concentration inhibiting DNA polymerase activity by 50 percent; cited from earlier work"}, "[8]": {"molecular_target": "DNA polymerase enzyme of woodchuck hepatitis virus (Woodchuck hepatitis B virus, UniProt P03160)", "sequence (P03160 whole entry)": "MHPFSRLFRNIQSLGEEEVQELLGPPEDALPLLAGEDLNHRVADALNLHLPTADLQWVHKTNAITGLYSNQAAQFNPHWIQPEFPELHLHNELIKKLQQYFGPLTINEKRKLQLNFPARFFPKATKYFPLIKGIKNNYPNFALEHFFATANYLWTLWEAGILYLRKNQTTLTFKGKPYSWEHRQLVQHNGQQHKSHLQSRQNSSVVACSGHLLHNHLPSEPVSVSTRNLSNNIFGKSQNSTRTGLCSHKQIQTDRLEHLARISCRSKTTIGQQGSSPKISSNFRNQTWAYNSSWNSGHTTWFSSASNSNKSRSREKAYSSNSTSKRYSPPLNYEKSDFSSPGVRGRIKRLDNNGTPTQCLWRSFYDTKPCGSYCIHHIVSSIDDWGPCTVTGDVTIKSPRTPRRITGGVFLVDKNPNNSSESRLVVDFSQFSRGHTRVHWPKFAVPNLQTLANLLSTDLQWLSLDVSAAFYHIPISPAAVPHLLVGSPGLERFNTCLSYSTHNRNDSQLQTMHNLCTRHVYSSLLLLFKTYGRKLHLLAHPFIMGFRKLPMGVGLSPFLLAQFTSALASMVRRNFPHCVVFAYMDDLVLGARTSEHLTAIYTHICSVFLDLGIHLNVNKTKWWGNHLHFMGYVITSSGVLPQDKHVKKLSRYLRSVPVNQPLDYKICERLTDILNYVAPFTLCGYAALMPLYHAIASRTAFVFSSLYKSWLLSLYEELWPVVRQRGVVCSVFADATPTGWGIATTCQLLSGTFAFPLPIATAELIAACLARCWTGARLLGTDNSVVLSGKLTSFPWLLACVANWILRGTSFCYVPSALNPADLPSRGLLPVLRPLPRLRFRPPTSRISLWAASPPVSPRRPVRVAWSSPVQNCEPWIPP", "details": "read-out: concentration inhibiting DNA polymerase activity by 50 percent; cited from earlier work"}, "[9]": {"system": "woodchuck hepatitis virus", "details": "cited from earlier work"}, "[10]": {"details": "cited from earlier work"}, "[11]": {"details": "chronic type therapy at HBV DNA suppressive doses"}}, "note": "Read-outs that look alike come from different tables or passages of the source.", "data": [{"compound": "Nc1ncnc2c1ncn2[C@@H]1O[C@H](CO)[C@@H](O)[C@@H]1O", "note": "[ara-A]", "values": [{"measurement": "HBV markers after dosing was stopped", "setting": "[1]", "value": "very rapidly rebounded to baseline levels and above"}, {"measurement": "toxicity on continued administration", "setting": "[1]; [11]", "value": "too toxic (persistent and severe neuromuscular pain)"}]}, {"compound": "interferon-alpha", "values": [{"measurement": "patients with major and sustained decreases in HBV DNA", "setting": "[1]; HBeAg positive chronic HBV infection, therapy for months", "value": "less than half of patients"}, {"measurement": "patient population in which effective", "setting": "[1]; reported", "value": "effective only in non-HIV infected patients with baseline entry serum HBV DNA levels less than 200 pg/ml"}]}, {"compound": "O=c1ccn([C@@H]2O[C@H](CO)[C@@H](O)[C@@H]2F)c(=O)[nH]1", "note": "[FAU, 1-(2'-deoxy-2'-fluoro-β-D-arabinofuranosyl)uracil]", "values": [{"measurement": "FAU plasma values (rarely exceeded)", "setting": "[2]; human, po, 1 mg/kg/day", "value": "≤ 0.15", "unit": "µg/mL"}, {"measurement": "FAU plasma values after the initial dose", "setting": "[2]", "value": "almost always undetectable"}]}, {"compound": "Nc1nc(=O)n([C@@H]2O[C@H](CO)[C@@H](O)[C@@H]2F)cc1I", "note": "[FIAC, 1-(2'-deoxy-2'-fluoro-β-D-arabinofuranosyl)-5-iodocytosine]", "values": [{"measurement": "stability in an acid environment", "setting": "[3]", "value": "stable in an acid environment"}, {"measurement": "EC90", "setting": "[4]", "value": "~50", "unit": "nM"}, {"measurement": "EC90", "setting": "[5]", "value": "~500", "unit": "nM"}, {"measurement": "CC50", "setting": "[6]", "value": "~10000", "unit": "nM"}, {"measurement": "IC50", "setting": "[7]", "value": "50 to 100", "unit": "nM"}, {"measurement": "IC50", "setting": "[8]", "value": "50 to 100", "unit": "nM"}, {"measurement": "suppression of viral polymerase and DNA", "setting": "[9]; FIAC 20 mg/kg-day for 7 days", "value": "Rapid, complete and persistent suppression"}, {"measurement": "accumulation in the plasma", "setting": "[10]; month long TID dosing of FIAC", "value": "neither FIAC, FIAU, or their metabolites accumulated in the plasma"}, {"measurement": "absorption following oral administration", "setting": "[10]; oral FIAC, patients", "value": "nearly completely absorbed"}, {"measurement": "conversion of FIAC to FIAU", "setting": "[10]; oral FIAC, patients", "value": "very rapidly converted to FIAU"}, {"measurement": "FIAC in plasma two hours after dosing", "setting": "[10]; oral FIAC", "value": "almost never detected"}]}, {"compound": "Nc1ncnc2c1ncn2[C@@H]1O[C@H](COP(=O)(O)O)[C@@H](O)[C@@H]1O", "note": "[ara-AMP]", "values": [{"measurement": "suppression of viral DNA", "setting": "[9]; similar dose given for 14 days", "value": "suppressed viral DNA but was followed by a rapid rebound to levels above baseline"}, {"measurement": "HBV markers after dosing was stopped", "setting": "[1]", "value": "very rapidly rebounded to baseline levels and above"}, {"measurement": "HBV markers after dosing was stopped", "setting": "[1]; listed as Ara-AMP", "value": "rapid rebound of DNA levels to pretreatment levels after 10-28 days of therapy is the norm"}, {"measurement": "toxicity on continued administration", "setting": "[1]; [11]", "value": "intolerably toxic"}, {"measurement": "toxicity on continued administration", "setting": "[1]; human, in vivo", "value": "too toxic (persistent and severe neuromuscular pain)"}]}]}
